Assay results from the supplement of paper PMC10307832.

Tests used:
Assay in all cases: relative viability (nuclei count vs DMSO), 5 days (fraction); higher = more cells survive
Embelin = compound: CCCCCCCCCCCC1=C(O)C(=O)C=C(O)C1=O [Embelin]
How it was run: (§1)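 Lung cancer cell lines in 1536-well plates were kept overnight at 37 °C, then pinned with five library-drug doses (not always all listed) spaced by √10 on vehicle-anchored plates. After 5 days without medium change, cells were fixed, permeabilised and Hoechst-stained in one step, imaged at 4×, and nuclei were counted with MetaXpress. Viability is treated-well nuclei divided by vehicle-well nuclei, taken as the median over plates. Plates passed only with control CV below 25% and at least one doubling.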

[1] = compound: C[C@@H]1CN(CC(=O)Nc2ccc3c(c2)Cc2cccc(-c4cc(=O)cc(N5CCOCC5)o4)c2S3)C[C@H](C)O1
How it was run: as §1

HG-5-88-01 = compound: CC(C)S(=O)(=O)C1=CC=CC=C1NC2=NC(=NC(=C2Cl)N)NC3=C(C=C(C=C3)N4CCC(CC4)C(=O)N)OC [HG-5-88-01]
How it was run: as §1

Vatalanib = compound: Clc1ccc(Nc2nnc(Cc3ccncc3)c3ccccc23)cc1 [Vatalanib]
How it was run: as §1

AZ23 = compound: CC(C)Oc1cc(Nc2nc(N[C@@H](C)c3ccc(F)cn3)ncc2Cl)n[nH]1 [AZ23]
How it was run: as §1

| Cell Line | relative viability (Embelin; 0.08 µM) | relative viability (Embelin; 0.8 µM) | relative viability (Embelin; 2.53 µM) | relative viability (Embelin; 8 µM) | relative viability ([1]; 0.04 µM) | relative viability ([1]; 0.1265 µM) | relative viability ([1]; 0.4 µM) | relative viability ([1]; 4 µM) | relative viability (HG-5-88-01; 0.04 µM) | relative viability (HG-5-88-01; 0.1265 µM) | relative viability (HG-5-88-01; 0.4 µM) | relative viability (HG-5-88-01; 1.265 µM) | relative viability (HG-5-88-01; 4 µM) | relative viability (Vatalanib; 0.04 µM) | relative viability (Vatalanib; 0.1265 µM) | relative viability (Vatalanib; 0.4 µM) | relative viability (Vatalanib; 1.265 µM) | relative viability (Vatalanib; 4 µM) | relative viability (AZ23; 0.01 µM) | relative viability (AZ23; 0.03162 µM) | relative viability (AZ23; 0.3162 µM) |
| --- | --- | --- | --- | --- | --- | --- | --- | --- | --- | --- | --- | --- | --- | --- | --- | --- | --- | --- | --- | --- | --- |
| IA-LM | 0.932 | 0.981 | 1 | 0.689 | 0.911 | 0.938 | 0.946 | 0.574 | 0.959 | 0.984 | 0.85 | 0.715 | 0.704 | 0.977 | 0.898 | 0.955 | 0.909 | 0.898 | 0.91 | 1.12 | 1.07 |
| SW 900 | 0.866 | 0.954 | 1.01 | 0.581 | 0.854 | 0.899 | 0.954 | 0.708 | 0.901 | 0.881 | 0.86 | 0.888 | 0.497 | 0.698 | 0.807 | 1.07 | 0.737 | 1.03 | 0.764 | 0.635 | 0.883 |
| EBC-1 | 1 | 1.11 | 1.02 | 0.979 | 1.02 | 0.952 | 0.712 | 0.535 | 1.02 | 0.851 | 0.98 | 0.933 | 0.901 | 1.06 | 0.895 | 1.06 | 0.955 | 0.896 | 1.04 | 1.12 | 0.931 |
| NCI-H2347 | 0.987 | 1.09 | 1.09 | 1.03 | 1.1 | 1.08 | 1.08 | 0.981 | 1.04 | 1.02 | 1.07 | 0.94 | 1.01 | 1.09 | 1.01 | 1.02 | 0.961 | 0.938 | 1.12 | 1.16 | 0.997 |
| A549 | 0.992 | 1.06 | 1.12 | 0.97 | 0.958 | 0.922 | 0.918 | 0.806 | 0.997 | 0.954 | 0.909 | 0.726 | 0.75 | 1.01 | 0.944 | 0.998 | 0.928 | 0.929 | 1.23 | 1.12 | 0.922 |
| NCI-H322M | 0.987 | 0.996 | 1.03 | 0.915 | 0.823 | 0.947 | 0.961 | 0.827 | 0.811 | 0.872 | 0.876 | 0.494 | 0.718 | 0.938 | 0.946 | 0.936 | 0.904 | 0.917 | 0.695 | 0.974 | 1.07 |
| NCI-H2087 | 1.01 | 1.22 | 1.27 | 1.05 | 1.15 | 0.912 | 1.1 | 0.948 | 1.16 | 0.989 | 0.916 | 1.07 | 0.746 | 1.18 | 0.928 | 1.08 | 0.889 | 1.09 | 1.24 | 1.21 | 0.963 |
| LCLC-97TM1 | 0.906 | 1.15 | 1.17 | 0.971 |  | 0.965 | 0.853 | 1.04 | 0.98 | 0.922 | 0.807 | 0.838 | 0.291 | 0.875 | 0.84 | 0.977 | 0.838 | 1.03 | 0.998 | 0.915 | 0.873 |
| NCI-H1915 | 1.08 | 1.07 | 1.04 | 0.983 | 0.966 | 0.985 | 1.01 | 0.748 | 1.03 | 1.06 | 1.01 | 1.13 | 0.745 | 1.05 | 0.943 | 1.01 | 0.981 | 0.992 | 1.1 | 1.06 | 1.01 |
| NCI-H3122 | 0.986 | 1.05 | 1.01 | 1.07 | 1.05 | 0.993 | 1.03 | 0.883 | 0.865 | 0.585 | 0.254 | 0.236 | 0.169 | 1.01 | 0.975 | 1.02 | 0.959 | 0.98 | 1.12 | 1.13 | 1.06 |
| NCI-H1703 | 0.99 | 1.79 | 0.899 | 0.838 | 1.26 | 0.763 | 0.797 | 0.668 | 0.778 | 0.983 | 0.663 | 0.941 | 0.954 | 1.12 | 0.754 | 1.14 | 0.527 | 0.363 |  | 0.879 | 0.943 |
| NCI-H460 | 1.01 | 1.03 | 1.04 | 0.997 | 0.934 | 0.963 | 1.06 | 0.938 | 1 | 0.953 | 0.954 | 0.99 | 1.03 | 1.03 | 0.924 | 1.01 | 0.947 | 0.984 | 1.03 | 1.08 | 1.07 |
| SW 1573 | 0.972 | 1.33 | 1.16 | 1.02 | 0.992 | 1.04 | 0.922 | 1.06 | 0.962 | 0.978 | 0.969 | 0.834 | 0.864 | 0.957 | 0.995 | 1.19 | 0.868 | 1.03 | 1.15 | 1.16 | 0.881 |
| EPLC-272H | 0.969 | 1.18 | 0.962 | 0.806 | 0.982 | 1 | 1.09 | 0.932 | 0.985 | 0.894 | 0.984 | 0.753 | 0.0869 | 0.958 | 0.906 | 1.13 | 0.889 | 0.89 | 0.674 | 1.11 | 0.745 |
| EMC-BAC-2 | 1.01 | 1.11 | 0.83 | 0.83 | 0.95 | 0.985 | 0.957 | 1.02 | 0.977 | 1.04 | 0.85 | 0.93 | 0.887 | 0.966 | 0.974 | 0.974 |  | 0.949 | 0.886 | 1.08 | 0.986 |
| SK-MES-1 | 1.02 | 1.07 | 1.13 | 0.954 | 1.09 | 1.05 | 0.923 | 0.8 | 0.983 | 0.962 | 0.966 | 0.924 | 1.05 | 1.03 | 0.913 | 1.09 | 0.971 | 0.893 | 0.745 | 1.08 | 1.08 |
